Laboratory results taken from patent US6433012B1, “Method for inhibiting inflammatory disease” (Large Scale Biology Corp., priority 1998, dated 2002).
pIC50: −log10 of the molar value. Entries after “also recorded” stand apart in the source; their conditions may differ.

Legend:
[1] = test system: R3230Ac rat mammary carcinoma; assay: Dorsal skin-fold window chamber assay; format: in vivo, Fischer 344 rats
Description: Details of the design and the surgical technique used for the rat dorsal skin-fold window chamber assay have been described elsewhere (Pappenfuss et al., Microvasc. Res. 18:311-318 (1979)). Briefly, the anatomical midline of the dorsal skin flap of an anesthetized rat was sutured to a pair of C-clamps and a skin-fold was retracted from the body surface by hanging the C-clamp on a stage. A circle of 1 cm of skin on each side of the skin-fold was surgically removed leaving two layers of fascia containing a few microvessels. After a pair of window frames was mounted, a piece of a R3230Ac rat mammary carcinoma (about 0.5 mm^3) from a donor rat was implanted onto the fascia in the window and the chamber was sealed with glass cover slips. On the fourth postoperative day, all tumor-containing windows were evaluated using an intravital microscope. The viability of the tumor implants, vasculature morphology, and blood flow in each window were crudely scored with 1-3 points assigned to each category. Only those windows with more than 6 points on this scale were included for further study. […] Tumor-window-bearing animals were randomly divided into treated and control groups that were stratified by the window scores. […] On day 12, the tumor windows were evaluated for the effect of the drug on tumor growth and vascularization. Images of whole tumors and tumor vasculature were obtained from four peripheral tumor areas, three to four central tumor areas, and from four areas in the surrounding granulating tissue, as described above. Again, measurements of various image parameters were made by an investigator who was unaware of the treatment protocol. Using the image analysis software, the cumulative length of all vessels in focus in each image was measured. Vascular length densities were calculated by dividing the total vessel length in a frame by the area of the frame. The diameters of all vessels in each image at high magnification were also measured and averaged.
All data were reported as means +/− the SEM for each group. The statistical significance of differences between treated and control groups was determined by using an unpaired t-test or the Mann-Whitney U-test. Statistically significant differences were defined as having a p<0.05.

[2] = test system: MCF-7 human breast carcinoma cells; assay: Chromosome condensation / prometaphase arrest; format: cell-based; details: 1 μM for 24 h
[3] = test system: rhodamine-labeled tubulin; assay: Cell-free fluorescence assay of microtubule assembly; format: biochemical; details: 15 μM tubulin, GTP
Description: Microtubules are major cytoskeletal components composed of α- and β-tubulin heterodimers bound with GTP. […] The effect of the drug on microtubule assembly was investigated directly by using a cell-free fluorescence assay involving the visualization of microtubule formation from rhodamine-labeled tubulin and microtubule seeds in the presence of GTP.

[4] = Bone marrow toxicity, histological examination; format: in vivo; details: 500 mg/kg-day by gavage for 4 weeks
Experimental: Swiss Webster mice were exposed to the drug at 500 mg/kg-day by gavage for a period of 4 weeks, and bone marrow was examined histologically.

[5] = Oral (gavage) toxicity in nude mice; format: in vivo; details: doses as high as 1,000 mg/kg-day for 60 to 180 days
MDA MB-231 cell cultures = assay: Cytotoxicity in vitro (reduction of cell number); format: cell-based; details: Homo sapiens, treated for 48 h, read-out: IC50 (50% reduction of cell number relative to vehicle-treated control)
[6] = test system: MDA MB-231 human breast carcinoma xenografts; assay: Tumor growth delay, MDA MB-231 xenografts; format: in vivo, Swiss NCr nude (nu/nu) female mice; details: oral treatment, 6 weeks of therapy
Experimental: (§1) Intraperitoneally administered cyclophosphamide (CTX; Cytoxan; 150 mg/kg), which is used in some regimens for adjuvant breast cancer therapy was used as a positive control.

MCF-7 cells [7] = assay: Trypan blue exclusion assay (loss of membrane integrity); format: cell-based; details: 1 μM, 48 h of exposure
MCF-7 cells [8] = assay: Flow cytometry, cell-cycle progression; format: cell-based, human; details: 1 μM, within 24 h
Description: Such arrested cells eventually undergo cell death which can occur by an apoptotic mechanism.

HeLa cells = assay: Cellular microtubule networks; format: cell-based, human; details: 10 μM for 1 h
[9] = test system: MDA MB-231 and MCF-7 cells; assay: Nuclear morphology of breast carcinoma cells; format: cell-based, human; details: 1 μ for 48 h
[10] = test system: OVCAR-3 human ovarian carcinoma xenografts; assay: Tumor growth delay, OVCAR-3 xenografts; format: in vivo, nude mice; details: oral treatment, at 5 weeks
Experimental: as §1

[11] = oral, postoperative days 5 to 11, no significant difference to controls

COC(=O)c1cc(I)c(Oc2ccc(OC)cc2)c(I)c1 [BTO-956, methyl-3,5-diiodo-4-(4′-methoxyphenoxy)benzoate]
reduction of tumor areas compared with controls ([1]; oral, postoperative days 5 to 11): more than 50%
vascular diameter in central tumor areas [1, 11]: 35.84±9.63 μm
vascular diameter in peripheral tumor areas [1, 11]: 32.19±4.46 μm
vascular diameter in surrounding areas [1, 11]: 21.52±3.33 μm
vascular length density in central tumor areas [1, 11]: 3.26±0.81 mm/mm^2
vascular length density in surrounding granulating tissue [1, 11]: 8.71±1.05 mm/^2
body weight loss or behavioral changes / toxic effects ([1]; tumor-bearing rats, oral 500 mg/kg, up to seven days, 500 mg/kg): No significant body weight loss or behavioral changes; also recorded: No serious toxic effects
chromosome condensation (prometaphase arrest) [2]: A large fraction of these cells showed chromosome condensation characteristic of a prometaphase arrest
microtubule formation ([3]; compound 1 μM): much shorter structures
microtubule formation ([3]; compound 10 μM): The same effect was observed
bone marrow profiles [4]: did not differ from those of control animals
hematopoietic abnormalities [4]: no hematopoietic abnormalities
gross pathology [5]: No other gross pathology
liver and kidney weights [5]: only slight and transient increases
pIC50 (MDA MB-231 cell cultures): 6.52
growth of tumors (relative mean tumor volume) [6]: suppressed
cytotoxicity by loss of membrane integrity (trypan blue exclusion) (MCF-7 cells [7]): substantial cytotoxicity
cells arrested at G2/M (MCF-7 cells [8]): at least 60%
cellular microtubule networks (HeLa cells): aberrant microtubule networks
nuclear morphology [9]: a significant number had condensed or fragmented nuclei
relative mean tumor volume, fold less than vehicle-treated controls [10]: approximately 5 fold
